PubChem BioAssay (NCI)
“And” between values parts separate entries of the source, which are not always exact repeats. Equal entries are not always repeated.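 Protocol summary: plate cells (96-well), add compound at 5 concentrations, incubate 48 h, interpolate endpoints linearly. At the GI50, growth is halved. The concentration for full growth arrest is given as TGI.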

test system: MALME-3M melanoma; experiment: inhibition of tumour cell growth, NCI panel, 48 h

| SMILES | TGI | GI50 |
| --- | --- | --- |
| C=CCN1C[C@H](C)N([C@H](c2ccc(C(=O)N(CC)CCO)cc2)c2cccc(OC)c2)C[C@H]1C | > 100 µM | – |
| C=C1C(=O)O[C@H]2[C@H]1[C@@H](OC(=O)C=C(C)C)CC1=C[C@@H](C[C@@]3(C)O[C@@H]23)OC1=O | 22.6 µM and 8.1 µM | 3.22 µM |
| O=c1[nH]cc(COCC(F)(F)C(F)(F)C(F)(F)C(F)F)c(=O)[nH]1 | > 100 µM | – |
| CC(=O)c1csc2c1C(=O)c1scc(C(C)=O)c1C2=O | 2.95 µM | – |
| O=C1NC(=O)C(CCO)(c2ccccc2)C(=O)N1 | > 100 µM | – |
| Cc1ccc(C2CC(c3ccco3)=NN2c2ccccc2)o1 (centres undefined) | > 100 µM | – |
| COC(=O)C(=C/c1ccc(OC)cc1)/C(C(=O)O)=C(/C)c1ccccc1 | > 100 µM | – |
| Nc1ccc(C(=O)NN2C(=O)C(Cl)C2c2ccccc2Cl)cc1 (centres undefined) | 31.4 µM | – |
| CCOC(=O)c1csc(NC(=O)C(C)N2CCCCC2)n1 (centres undefined) | > 100 µM | – |
| CCN1c2nc3ccccc3nc2N(CC)c2nc3ccccc3nc21 | > 100 µM | – |
| CCN1CCN(c2ccc(Nc3ccnc4ccc5nn(C)nc5c34)cc2)CC1 | 30.8 µM | – |
| c1cc(-c2ncc(-c3ccc4c(c3)CCCO4)o2)ccn1 | 50.8 µM | – |
| COc1ccnc2c1C(=O)c1nc3ccccc3c3ccnc-2c13 | 1.3 µM | – |
| CCN(CC)CCn1nc(N)c2nc3cc(Cl)ccc3nc21 | > 100 µM | – |
| O=C(O)c1ccc(NNc2cc(=O)[nH]c(=O)[nH]2)cc1 | > 100 µM | – |
| COc1ccc2c(c1)CCc1c-2[nH]c2ccc(OC)cc12 | > 100 µM | – |

| SMILES | TGI | GI50 |
| --- | --- | --- |
| COC(=O)C1OC(Oc2cc(O)c3c(=O)cc(-c4ccc(O)cc4)oc3c2)C(O)C(O)C1O (centres undefined) | > 100 µM | – |
| C=CCn1c(=O)n(CC=C)c(=O)n(CC=C)c1=O | > 100 µM | – |
| COc1cc(/C=C2\C[C@H]3[C@@H]4CC=C5C[C@@H](O)CC[C@]5(C)[C@H]4CC[C@]3(C)C2=O)cc(OC)c1OC | > 100 µM | – |
| CC1=C(Br)C(Br)=C(C)S1=O | 39.3 µM | – |
| CC1(C)c2ccccc2C(=O)C12CCC(=O)CC2 | > 100 µM | – |
| Cc1cc(C)cc(C(=N)c2ccccc2Cc2cccc3ccccc23)c1 | 33.4 µM | – |
| Cn1ccc(C(=O)NCCOCCNC(=O)c2ccn(C)c(=O)c2O)c(O)c1=O | > 100 µM | – |
| O=C1C(Cl)C(c2ccccc2)N1n1cnc2ccccc2c1=O (centres undefined) | > 100 µM | – |
| CN(C)C(=O)OCOC(=O)N(C)C | > 100 µM | – |
| CC(=O)OCC1OC(Nc2ncc(-c3ccc(C)cc3)s2)C(OC(C)=O)C(OC(C)=O)C1OC(C)=O (centres undefined) | > 100 µM | – |
| CNC(=S)N/N=C(C)\C(=N/NC(=S)NC)c1ccccc1 | > 100 µM | – |
| CCCCN1C=CN2c3nc4cc(C)c(C)cc4n3C(C(=O)OC)=C(C(=O)OC)C12 (centres undefined) | > 100 µM | – |
| C#CCn1ncc2c(SCc3ccccc3)ncnc21 | > 100 µM | – |
| CCCCCC(C[N+]1(C)CCOCC1)C(=O)/C=C/c1ccccc1 (centres undefined) | 32 µM | – |
| C/C(=C1/CCCC2(N=NCC2c2ccccc2)C1=O)c1ccccc1 (centres undefined) | 59.7 µM | – |

test system: MDA-MB-435; experiment: inhibition of tumour cell growth, NCI panel, 48 h

| SMILES | TGI |
| --- | --- |
| COc1ccc2c3c1O[C@H]1C(O)CCC4(O)[C@@H](C2)NCC[C@]314 (some centres undefined) | > 100 µM |
| N#CSc1nc[nH]c1C(N)=O | > 100 µM |
| CN(C)C(=O)NCCN1CCCCCc2ccccc21 | > 100 µM |
| C=CCN1C[C@H](C)N([C@H](c2ccc(C(=O)N(CC)CCO)cc2)c2cccc(OC)c2)C[C@H]1C | > 100 µM |
| CC(=O)c1csc2c1C(=O)c1scc(C(C)=O)c1C2=O | 0.336 µM |
| CCOC(=O)c1csc(NC(=O)C(C)N2CCCCC2)n1 (centres undefined) | > 100 µM |
| CCN1c2nc3ccccc3nc2N(CC)c2nc3ccccc3nc21 | > 100 µM |
| Cc1cccc2c1Oc1cc(Cl)ccc1C2NC(=O)CCN1CCOCC1 (centres undefined) | > 100 µM |
| C[C@H]1[C@H](C)CC[C@]2(C)CC[C@]3(C)C(=C[C@@H](O)[C@@H]4[C@@]5(C)[C@H](O)[C@@H](O)[C@H](O)C(C)(C)[C@@H]5CC[C@]43C)[C@H]12 | > 100 µM |
| c1cc(-c2ncc(-c3ccc4c(c3)CCCO4)o2)ccn1 | 15.3 µM |
| COc1ccnc2c1C(=O)c1nc3ccccc3c3ccnc-2c13 | 1.52 µM |
| CCN(CC)CCn1nc(N)c2nc3cc(Cl)ccc3nc21 | > 100 µM |
| COc1ccc2c(c1)CCc1c-2[nH]c2ccc(OC)cc12 | > 100 µM |
| COc1cc(/C=C2\C[C@H]3[C@@H]4CC=C5C[C@@H](O)CC[C@]5(C)[C@H]4CC[C@]3(C)C2=O)cc(OC)c1OC | > 100 µM |
| CC1=C(Br)C(Br)=C(C)S1=O | 30.9 µM |
| Cc1cc(C)cc(C(=N)c2ccccc2Cc2cccc3ccccc23)c1 | 32.9 µM |
| Cn1ccc(C(=O)NCCOCCNC(=O)c2ccn(C)c(=O)c2O)c(O)c1=O | > 100 µM |
| CCOC(=O)C1=C(Nc2cccc(OC)c2)OCC1=O | > 100 µM |
| C#CCn1ncc2c(SCc3ccccc3)ncnc21 | > 100 µM |
| CC1=CC(C2/C(=N/O)C=C(C)CC2(C)C)C(O)C(C)(C)C1 (centres undefined) | 31.2 µM |

test system: MOLT-4 leukemia; experiment: inhibition of tumour cell growth, NCI panel, 48 h

| SMILES | TGI |
| --- | --- |
| COc1ccc2c3c1O[C@H]1C(O)CCC4(O)[C@@H](C2)NCC[C@]314 (some centres undefined) | > 100 µM |
| CN(C)C(=O)NCCN1CCCCCc2ccccc21 | > 100 µM |
| Cc1ccc2c(c1CCCC(C)(C)O)C(=O)C(=O)C(C(C)C)=C2O | > 100 µM |
| C=CCN1C[C@H](C)N([C@H](c2ccc(C(=O)N(CC)CCO)cc2)c2cccc(OC)c2)C[C@H]1C | > 100 µM |
| C=C1C(=O)O[C@H]2[C@H]1[C@@H](OC(=O)C=C(C)C)CC1=C[C@@H](C[C@@]3(C)O[C@@H]23)OC1=O | 77.4 µM |
| O=c1[nH]cc(COCC(F)(F)C(F)(F)C(F)(F)C(F)F)c(=O)[nH]1 | > 100 µM |
| CC(=O)c1csc2c1C(=O)c1scc(C(C)=O)c1C2=O | 1.13 µM |
| O=C1NC(=O)C(CCO)(c2ccccc2)C(=O)N1 | > 100 µM |
| Cc1ccc(C2CC(c3ccco3)=NN2c2ccccc2)o1 (centres undefined) | > 100 µM |
| COC(=O)C(=C/c1ccc(OC)cc1)/C(C(=O)O)=C(/C)c1ccccc1 | > 100 µM |
| COC(=O)c1ccc(/C=C2\N=C(C)OC2=O)cc1 | > 100 µM |
| Nc1ccc(C(=O)NN2C(=O)C(Cl)C2c2ccccc2Cl)cc1 (centres undefined) | 8.1 µM |
| CCOC(=O)c1csc(NC(=O)C(C)N2CCCCC2)n1 (centres undefined) | > 100 µM |
| CCN1c2nc3ccccc3nc2N(CC)c2nc3ccccc3nc21 | > 100 µM |
| CCN1CCN(c2ccc(Nc3ccnc4ccc5nn(C)nc5c34)cc2)CC1 | > 100 µM |
| Cc1cccc2c1Oc1cc(Cl)ccc1C2NC(=O)CCN1CCOCC1 (centres undefined) | > 100 µM |
| C[C@H]1[C@H](C)CC[C@]2(C)CC[C@]3(C)C(=C[C@@H](O)[C@@H]4[C@@]5(C)[C@H](O)[C@@H](O)[C@H](O)C(C)(C)[C@@H]5CC[C@]43C)[C@H]12 | > 100 µM |
| c1cc(-c2ncc(-c3ccc4c(c3)CCCO4)o2)ccn1 | 17.3 µM |
| COc1ccnc2c1C(=O)c1nc3ccccc3c3ccnc-2c13 | 7.32 µM |

| SMILES | TGI |
| --- | --- |
| CCN(CC)CCn1nc(N)c2nc3cc(Cl)ccc3nc21 | > 100 µM |
| O=C(O)c1ccc(NNc2cc(=O)[nH]c(=O)[nH]2)cc1 | > 100 µM |
| COc1ccc2c(c1)CCc1c-2[nH]c2ccc(OC)cc12 | > 100 µM |
| COC(=O)C1OC(Oc2cc(O)c3c(=O)cc(-c4ccc(O)cc4)oc3c2)C(O)C(O)C1O (centres undefined) | > 100 µM |
| C=CCn1c(=O)n(CC=C)c(=O)n(CC=C)c1=O | > 100 µM |
| COc1cc(/C=C2\C[C@H]3[C@@H]4CC=C5C[C@@H](O)CC[C@]5(C)[C@H]4CC[C@]3(C)C2=O)cc(OC)c1OC | 68.4 µM |
| CC1=C(Br)C(Br)=C(C)S1=O | 33.4 µM |
| CC1(C)c2ccccc2C(=O)C12CCC(=O)CC2 | > 100 µM |
| Cc1cc(C)cc(C(=N)c2ccccc2Cc2cccc3ccccc23)c1 | 30.8 µM |
| O=C1C(Cl)C(c2ccccc2)N1n1cnc2ccccc2c1=O (centres undefined) | > 100 µM |
| CN(C)C(=O)OCOC(=O)N(C)C | > 100 µM |
| CCOC(=O)C1=C(Nc2cccc(OC)c2)OCC1=O | > 100 µM |
| CC(=O)OCC1OC(Nc2ncc(-c3ccc(C)cc3)s2)C(OC(C)=O)C(OC(C)=O)C1OC(C)=O (centres undefined) | 65.3 µM |
| CCCCN1C=CN2c3nc4cc(C)c(C)cc4n3C(C(=O)OC)=C(C(=O)OC)C12 (centres undefined) | > 100 µM |
| C#CCn1ncc2c(SCc3ccccc3)ncnc21 | 39 µM |
| CCCCCC(C[N+]1(C)CCOCC1)C(=O)/C=C/c1ccccc1 (centres undefined) | 27.4 µM |
| CC1=CC(C2/C(=N/O)C=C(C)CC2(C)C)C(O)C(C)(C)C1 (centres undefined) | 31.3 µM |
| C/C(=C1/CCCC2(N=NCC2c2ccccc2)C1=O)c1ccccc1 (centres undefined) | 48.1 µM |

test system: OVCAR-3 ovarian; experiment: inhibition of tumour cell growth, NCI panel, 48 h

| SMILES | TGI | GI50 |
| --- | --- | --- |
| COc1ccc2c3c1O[C@H]1C(O)CCC4(O)[C@@H](C2)NCC[C@]314 (some centres undefined) | > 100 µM | – |
| N#CSc1nc[nH]c1C(N)=O | > 100 µM | – |
| CN(C)C(=O)NCCN1CCCCCc2ccccc21 | > 100 µM | – |
| Cc1ccc2c(c1CCCC(C)(C)O)C(=O)C(=O)C(C(C)C)=C2O | > 100 µM | – |
| C=CCN1C[C@H](C)N([C@H](c2ccc(C(=O)N(CC)CCO)cc2)c2cccc(OC)c2)C[C@H]1C | 54.6 µM | – |
| C=C1C(=O)O[C@H]2[C@H]1[C@@H](OC(=O)C=C(C)C)CC1=C[C@@H](C[C@@]3(C)O[C@@H]23)OC1=O | 4.77 µM and 15.6 µM | 4.92 µM |
| O=c1[nH]cc(COCC(F)(F)C(F)(F)C(F)(F)C(F)F)c(=O)[nH]1 | > 100 µM | – |
| CC(=O)c1csc2c1C(=O)c1scc(C(C)=O)c1C2=O | 0.646 µM | – |
| O=C1NC(=O)C(CCO)(c2ccccc2)C(=O)N1 | > 100 µM | – |
| Cc1ccc(C2CC(c3ccco3)=NN2c2ccccc2)o1 (centres undefined) | > 100 µM | – |
| COC(=O)C(=C/c1ccc(OC)cc1)/C(C(=O)O)=C(/C)c1ccccc1 | > 100 µM | – |
| COC(=O)c1ccc(/C=C2\N=C(C)OC2=O)cc1 | > 100 µM | – |
| Nc1ccc(C(=O)NN2C(=O)C(Cl)C2c2ccccc2Cl)cc1 (centres undefined) | 26.9 µM | – |
| CCOC(=O)c1csc(NC(=O)C(C)N2CCCCC2)n1 (centres undefined) | > 100 µM | – |
| CCN1c2nc3ccccc3nc2N(CC)c2nc3ccccc3nc21 | > 100 µM | – |
| CCN1CCN(c2ccc(Nc3ccnc4ccc5nn(C)nc5c34)cc2)CC1 | 29.5 µM | – |
| Cc1cccc2c1Oc1cc(Cl)ccc1C2NC(=O)CCN1CCOCC1 (centres undefined) | > 100 µM | – |
| C[C@H]1[C@H](C)CC[C@]2(C)CC[C@]3(C)C(=C[C@@H](O)[C@@H]4[C@@]5(C)[C@H](O)[C@@H](O)[C@H](O)C(C)(C)[C@@H]5CC[C@]43C)[C@H]12 | > 100 µM | – |
| c1cc(-c2ncc(-c3ccc4c(c3)CCCO4)o2)ccn1 | 29.9 µM | – |
